Measured values published in ChEMBL document CHEMBL4364294 (J Med Chem, 2019).

Assay: Intrinsic clearance in human liver microsomes
Type: ADME, Microsome
Conditions: read-out: CLH

SMILES: OC(CC1c2ccccc2-c2cncn21)C1CCC(F)(F)CC1 (stereo unspecified)
- predicted hepatic clearance: 14.6 mL/min/kg
